# Measurements reported in patent publication US20230255927A1 (ELANCO TIERGESUNDHEIT AG, priority 2022, published 2023).
# Marks after values point to notes of the source that are not given here.
# Test system: lactating dairy cattle
# Experiment: Combined analysis of Wisconsin and New York Studies
# Type: in vivo
# Design: DMI / NEL: unit not given here
# Details: for Milk protein percentage: all treatments
# Experimental: The instant example provides the combined analysis of data from the two studies (Wisconsin Study and New York Study). The two studies were combined statistically to explore effects on milk production efficiency and other variables associated with efficiency. By effectively doubling pen numbers an increase in power of the analysis was provided. Analysis of these combined datasets was performed in various ways, with the inclusion of either weekly milk yield averages or sample day milk yields to calculate milk component yields, component corrected yields, and feed efficiency. Further, the combined dataset was analyzed using data collected from all experimental weeks as well as the exclusion of data from the first three weeks of experimental treatment feeding. This was done to exclude any shifts in response variables while the rumen environment was adapting to the treatment provided. Materials & Methods: All data from both experimental locations were combined and statistically analyzed as a longitudinal experiment design through SAS version 9.4 (SAS Institute Inc., Cary, N.C.). Experimental response variables, excluding body condition score (BCS), were analyzed using PROC MIXED and […] statements to compare treatment means using the following model: γijklm=μ+[…] Where γijklm=an individual observation of the response variable analyzed, Ti=the i^th dietary treatment, Wj=the j^th experimental week, TWij=the interaction of the i^th treatment with the j^th experimental week, Lk=the k^th experimental location, Pl(i*k)=the 1th pen within the i^th treatment and k^th experimental location, WPjl(i*k)=the interaction of the j^th experimental week with the 1th pen within the i^th treatment and k^th experimental location, Cm(l*i*k)=the m^th cow within the 1th pen, the i^th treatment and k^th experimental location, BXmlik=the covariate observation obtained after three weeks of feeding a common diet to all treatment groups, and ∈ijklmn=the random error of the m^th cow within the 1th pen, the i^th treatment and the k^th location. […] Data were analyzed with pen as the experimental unit and cow as the observational unit. Dietary treatment and experimental week were considered fixed effects, whereas location, pen and cow were considered random effects. An auto-regressive covariance structure [AR(1)] was used to analyze repeated measurements (week of experimental period) with cow nested in pen within treatment as the subject. For pen level observations (DMI, production efficiency and NEL measurements), the main effect of cattle was dropped from the statistical model above. Further, pen was used as the subject of the auto-regressive repeated analysis. Degrees of freedom were adjusted using the Kenward-Roger option and multiple treatment […] comparisons were adjusted by the Tukey method. Non-parametric analysis of BCS measurements, via PROC NPAR1WAY, was performed to evaluate differences in dietary treatments at both the initiation of the experiment and during the final week of the experiments. Statistical significance was reported as P≤0.05 and tendencies as 0.05<P≤0.10. […] This analysis, deemed the 'post-acclimation' analysis, removed the first three experimental weeks of data from the experimental dataset, leaving only the fourth to ninth weeks for statistical interpretation. The statistical model was identical to the previously described approach and all data, except for body weight and NEL (due to missing data), were reanalyzed for interpretation.
# [1] = 11 g/ton, experimental weeks 4 through 9
# [2] = 11 g/ton, sample day, entire experiment
# [3] = 11 g/ton, sample day, weeks 4 through 9
# [4] = 11 g/ton, weekly averaged, entire experiment
# [5] = 11 g/ton, weekly averaged, weeks 4 through 9
# [6] = 14.5 g/ton, experimental weeks 4 through 9
# [7] = 14.5 g/ton, sample day, entire experiment
# [8] = 14.5 g/ton, sample day, weeks 4 through 9
# [9] = 14.5 g/ton, weekly averaged, entire experiment
# [10] = 14.5 g/ton, weekly averaged, weeks 4 through 9
# [11] = 18 g/ton, experimental weeks 4 through 9
# [12] = 18 g/ton, sample day, entire experiment
# [13] = 18 g/ton, sample day, weeks 4 through 9
# [14] = 18 g/ton, weekly averaged, entire experiment
# [15] = 18 g/ton, weekly averaged, weeks 4 through 9
structure (smiles),measurement,setting,value
CC[C@@]1([C@@H]2O[C@@H]([C@H]3O[C@@](O)(CO)[C@H](C)C[C@@H]3C)C[C@@H]2C)CC[C@H]([C@]2(C)CC[C@]3(C[C@H](O)[C@@H](C)[C@@H]([C@@H](C)[C@@H](OC)[C@H](C)C(=O)O)O3)O2)O1 [monensin],DMI,"11 g/ton, entire experiment",59.7
same,MUN,"11 g/ton, entire experiment",11.0^b mg/dL
same,"Milk Fat, %","11 g/ton, entire experiment",4.45%
same,Milk Fatty Acid: De novo,"11 g/ton, entire experiment",1.08^b g/100 g
same,Milk Fatty Acid: Mixed,"11 g/ton, entire experiment",1.79 g/100 g
same,Milk Fatty Acid: Performed,"11 g/ton, entire experiment",1.32 g/100 g
same,Milk Fatty Acid: Total FA,"11 g/ton, entire experiment",4.20 g/100 g
same,"Milk Lactose, %","11 g/ton, entire experiment",4.66%
same,"Milk Protein, %","11 g/ton, entire experiment",3.29%
same,DMI,[1],59.5
same,MUN,[1],11.1^by mg/dL
same,"Milk Fat, %",[1],4.46%
same,Milk Fatty Acid: Mixed,[1],1.79^ab g/100 g
same,Milk Fatty Acid: Performed,[1],1.33 g/100 g
same,Milk Fatty Acid: Total FA,[1],4.21 g/100 g
same,"Milk Lactose, %",[1],4.65%
same,"Milk Protein, %",[1],3.33%
same,NEL,"11 g/ton, sample day milk yield, entire experiment",1.53
same,Day of Sample Milk Yield,[2],92.0 lb
same,ECM,[2],100.8^a lb
same,ECM:Feed,[2],1.72^a
same,FCM,[2],95.3^a lb
same,FCM:Feed,[2],1.63^a
same,Fat yield,[2],4.05^xy lb
same,Lactose yield,[2],4.30 lb
same,Milk:Feed,[2],1.56^xy
same,Protein yield,[2],3.02 lb
same,SCM,[2],95.2^xy lb
same,SCM:Feed,[2],1.59^ab
same,Day of Sample Milk Yield,[3],90.6 lb
same,ECM,[3],102.0^ab lb
same,ECM:Feed,[3],1.71^abx
same,FCM,[3],96.2^ab lb
same,FCM:Feed,[3],1.61^b
same,Fat yield,[3],3.98^ab lb
same,Lactose yield,[3],4.23 lb
same,Milk:Feed,[3],1.54^xy
same,Protein yield,[3],3.01 lb
same,SCM,[3],93.9^ab lb
same,SCM:Feed,[3],1.57^abx
same,NEL,"11 g/ton, weekly averaged milk yield, entire experiment",1.53
same,ECM,[4],102.8 lb
same,ECM:Feed,[4],1.73^aby
same,FCM,[4],97.2 lb
same,FCM:Feed,[4],1.64^b
same,Fat yield,[4],4.03 lb
same,Lactose yield,[4],4.27 lb
same,Milk Yield,[4],91.5 lb
same,Milk:Feed,[4],1.57
same,Protein yield,[4],3.00 lb
same,SCM,[4],94.7^xy lb
same,SCM:Feed,[4],1.59^by
same,ECM,[5],101.6^y lb
same,ECM:Feed,[5],1.72^b
same,FCM,[5],95.9^y lb
same,FCM:Feed,[5],1.62^b
same,Fat yield,[5],3.97^ab lb
same,Lactose yield,[5],4.19 lb
same,Milk Yield,[5],90.4 lb
same,Milk:Feed,[5],1.55
same,Protein yield,[5],2.99 lb
same,SCM,[5],93.5^aby lb
same,SCM:Feed,[5],1.58^b
same,DMI,"14.5 g/ton, entire experiment",59.2
same,"Milk Fat, %","14.5 g/ton, entire experiment",4.47%
same,Milk Fatty Acid: De novo,"14.5 g/ton, entire experiment",1.08^b g/100 g
same,Milk Fatty Acid: Mixed,"14.5 g/ton, entire experiment",1.80 g/100 g
same,Milk Fatty Acid: Performed,"14.5 g/ton, entire experiment",1.31 g/100 g
same,Milk Fatty Acid: Total FA,"14.5 g/ton, entire experiment",4.20 g/100 g
same,"Milk Lactose, %","14.5 g/ton, entire experiment",4.67%
same,"Milk Protein, %","14.5 g/ton, entire experiment",3.30%
same,DMI,[6],59.5
same,MUN,[6],11.0^b mg/dL
same,"Milk Fat, %",[6],4.50%
same,Milk Fatty Acid: Mixed,[6],1.82^b g/100 g
same,Milk Fatty Acid: Performed,[6],1.32 g/100 g
same,Milk Fatty Acid: Total FA,[6],4.23 g/100 g
same,"Milk Lactose, %",[6],4.66%
same,"Milk Protein, %",[6],3.33%
same,NEL,"14.5 g/ton, sample day milk yield, entire experiment",1.55
same,Day of Sample Milk Yield,[7],92.6 lb
same,ECM,[7],104.1^b lb
same,ECM:Feed,[7],1.77^b
same,FCM,[7],98.6^b lb
same,FCM:Feed,[7],1.68^b
same,Fat yield,[7],4.09^y lb
same,Lactose yield,[7],4.34 lb
same,Milk:Feed,[7],1.61^y
same,Protein yield,[7],3.03 lb
same,SCM,[7],96.0^y lb
same,SCM:Feed,[7],1.64^b
same,Day of Sample Milk Yield,[8],91.3 lb
same,ECM,[8],103.3^b lb
same,ECM:Feed,[8],1.75^by
same,FCM,[8],97.6^b lb
same,FCM:Feed,[8],1.66^c
same,Fat yield,[8],4.06^b lb
same,Lactose yield,[8],4.27 lb
same,Milk:Feed,[8],1.57^y
same,Protein yield,[8],3.02 lb
same,SCM,[8],95.2^b lb
same,SCM:Feed,[8],1.62^by
same,NEL,"14.5 g/ton, weekly averaged milk yield, entire experiment",1.54
same,ECM,[9],102.4 lb
same,ECM:Feed,[9],1.74^b
same,FCM,[9],96.9 lb
same,FCM:Feed,[9],1.65^b
same,Fat yield,[9],4.03 lb
same,Lactose yield,[9],4.26 lb
same,Milk Yield,[9],91.0 lb
same,Milk:Feed,[9],1.57
same,Protein yield,[9],2.98 lb
same,SCM,[9],94.5^y lb
same,SCM:Feed,[9],1.61^b
same,ECM,[10],101.7^y lb
same,ECM:Feed,[10],1.72^b
same,FCM,[10],96.1^y lb
same,FCM:Feed,[10],1.63^b
same,Fat yield,[10],4.00^b lb
same,Lactose yield,[10],4.19 lb
same,Milk Yield,[10],89.8 lb
same,Milk:Feed,[10],1.54
same,Protein yield,[10],2.97 lb
same,SCM,[10],93.7^b lb
same,SCM:Feed,[10],1.58^b
same,Sample day milk yield difference from the control treatment,"18 g/ton treatment, post-acclimation data",1.5 pounds
same,DMI,"18 g/ton, entire experiment",59.7
same,MUN,"18 g/ton, entire experiment",10.4^ab mg/dL
same,"Milk Fat, %","18 g/ton, entire experiment",4.42%
same,Milk Fatty Acid: De novo,"18 g/ton, entire experiment",1.06^ab g/100 g
same,Milk Fatty Acid: Mixed,"18 g/ton, entire experiment",1.77 g/100 g
same,Milk Fatty Acid: Performed,"18 g/ton, entire experiment",1.30 g/100 g
same,Milk Fatty Acid: Total FA,"18 g/ton, entire experiment",4.13 g/100 g
same,"Milk Lactose, %","18 g/ton, entire experiment",4.66%
same,"Milk Protein, %","18 g/ton, entire experiment",3.29%
same,DMI,[11],60.2
same,MUN,[11],10.4^abx mg/dL
same,"Milk Fat, %",[11],4.43%
same,Milk Fatty Acid: De novo,[11],1.07^ab g/100 g
same,Milk Fatty Acid: Mixed,[11],1.78^ab g/100 g
same,Milk Fatty Acid: Performed,[11],1.32 g/100 g
same,Milk Fatty Acid: Total FA,[11],4.16 g/100 g
same,"Milk Lactose, %",[11],4.66%
same,"Milk Protein, %",[11],3.32%
same,NEL,"18 g/ton, sample day milk yield, entire experiment",2.39
same,Day of Sample Milk Yield,[12],91.6 lb
same,ECM,[12],102.2^ab lb
same,ECM:Feed,[12],1.71^a
same,FCM,[12],96.7^ab lb
same,FCM:Feed,[12],1.61^a
same,Fat yield,[12],3.99^xy lb
same,Lactose yield,[12],4.27 lb
same,Milk:Feed,[12],1.55^x
same,Protein yield,[12],2.98 lb
same,SCM,[12],94.1^xy lb
same,SCM:Feed,[12],.157^a
same,Day of Sample Milk Yield,[13],90.6 lb
same,ECM,[13],101.4^ab lb
same,ECM:Feed,[13],1.67^a
same,FCM,[13],95.8^ab lb
same,FCM:Feed,[13],1.58^ab
same,Fat yield,[13],3.96^ab lb
same,Lactose yield,[13],4.22 lb
same,Milk:Feed,[13],1.51^x
same,Protein yield,[13],2.97 lb
same,SCM,[13],93.4^ab lb
same,SCM:Feed,[13],1.54^a
same,NEL,"18 g/ton, weekly averaged milk yield, entire experiment",2.38
same,ECM,[14],100.9 lb
same,ECM:Feed,[14],1.69^ax
same,FCM,[14],95.5 lb
same,FCM:Feed,[14],1.60^a
same,Fat yield,[14],3.95 lb
same,Lactose yield,[14],4.22 lb
same,Milk Yield,[14],90.4 lb
same,Milk:Feed,[14],1.53
same,Protein yield,[14],2.95 lb
same,SCM,[14],93.1^x lb
same,SCM:Feed,[14],1.56^a
same,ECM,[15],100.2^xy lb
same,ECM:Feed,[15],1.66^a
same,FCM,[15],94.6^xy lb
same,FCM:Feed,[15],1.56^a
same,Fat yield,[15],3.91^ab lb
same,Lactose yield,[15],4.16 lb
same,Milk Yield,[15],89.4 lb
same,Milk:Feed,[15],1.50
same,Protein yield,[15],2.94 lb
same,SCM,[15],92.3^ab lb
same,SCM:Feed,[15],1.53^a
same,Milk protein percentage,entire study,3.29%
same,Milk protein percentage,post-acclimation period,3.32%
